Experimental data as given in US20220125877A1, “METHOD FOR TREATING COLORECTAL CANCER” (SUN YAT-SEN UNIVERSITY, priority 2019, published 2022).

Columns and labels:
SW48+sh-MATE1 CDX = assay: Cell-derived xenograft (CDX), tumor growth; assay type: in vivo, BALB/c nude mice; details: 200 mg/kg in water, 30 d, MATE1 knocked down, FIGS. 12G-L
Protocol: (§1) In the CDX, CRISPR/Cas9 was first utilized to build a KRAS^G13DSW48 cell line; MATE1 was knocked down by shRNA lentivirus transduction in SW48 to build a sh-MATE1-SW48 cell line; lentivirus was infected in KRAS^G13DSW48 cells to over-express MATE1. 1×10^6 cells were suspended in a basement membrane matrix (100 μl basement membrane matrix and 100 μl PBS) and subcutaneously injected into BALB/c nude mice. CDX mice were randomly distributed into a metformin treatment group and a control group. 200 mg/kg (equivalent to human 1000 mg) metformin was dissolved into water, and respectively taken by the 4 groups of animals; then the tumor size was measured; 30 d later, the tumor tissues were killed and weighed.

[1] = system: KRAS^G13DSW48 graft with MATE1 over-expressed; assay: Cell-derived xenograft (CDX), tumor growth; assay type: in vivo, BALB/c nude mice; details: 200 mg/kg in water, 30 d, compared with the KRAS^G13DSW48 tumor, FIGS. 12G-L
Protocol: as §1

[2] = system: KRAS wildtype CRC cells SW48; assay: Cell viability (CCK-8 method); assay type: cell-based; details: Homo sapiens, CCK8, FIG. 10
Protocol: (§2) The cells were inoculated on a plate according to the concentration of 5000 cells/well (48-well plate, 200 μl per well). The cells were treated with different ways according to the experimental requirements, and 10 μl CCK8 solution was added after a period of time. The cells were incubated for 1 h in an incubator; 200 μl supernatant were absorbed into a 96-well ELISA plate to determine OD450 with a microplate reader.
(§3) (2) Metformin with a gradient concentration was used in vitro to treat KRAS wildtype colorectal cancer cell lines SW48 and CaCO2, KRAS G13D-mutation colorectal cancer cell lines HCT-116 and LoVo, as well as KRAS G12V-mutation colorectal cancer cell lines SW480 and SW620. In addition, the metformin with a gradient concentration was used to treat the KRAS wildtype colorectal cancer cell line SW48 transfected with KRAS G12V, KRAS G13D and KRAS G12D plasmids.
(§4) 5 μM and 10 μM lansoprazole were used to treat HCT-116 and LoVo simultaneously; metformin was used to treat the cells at the same time for 48 h; the cell viability was detected by CCK8.

[3] = system: KRAS wildtype CRC cells CaCO2; assay: Cell viability (CCK-8 method); assay type: cell-based; details: Homo sapiens, Caco-2; CCK8, FIG. 10
Protocol: as §2, §3, §4

[4] = system: KRAS wildtype CRC cells SW48; assay: Proliferation detection (Edu method); assay type: cell-based, human; details: FIGS. 8A-B
Protocol: (§5) Edu was used to detect the ratio of proliferative cells, a plate clone formation experiment and PI/Rnase simple staining were used to detect the distribution of cell cycles, thus making the effect of metformin on the proliferation of CRC cells clear.
(§6) 1) Cell treatment by Edu: cells were cultured in a culture dish (covered with a sterilized cover glass), and subjected adherence growth for 12 h, and starvation treatment over the night, and treated with the addition of an agent for the corresponding time, and then added with EdU (final concentration: 10 μM) at the last 2-6 h (EdU treatment time was determined according to the cell growth rate).
(§7) 2) Immobilization: 4% paraformaldehyde was added according to 1 mL/well to immobilize the cells for 15 min at room temperature.
(§8) 3) Slide washing: 3% BSA (dissolved by PBS) was used according to 1 mL/well for washing for twice.
(§9) 4) Rupture of membrane: the cells were treated by 0.5% TritonX-100 according to 1 mL/well for 20 min at room temperature.
(§10) 5) Slide washing: the same as the step 3).
(§11) 6) Addition of a ClickiT reaction mixture: the reaction mixture was added per […] in the dark for 30 min at room temperature. […]
(§12) 11) The slide was observed under a full-automatic positive fluorescence microscope to analyze the result, and shoot and recorded (100×, 200×, 400×, the original image was kept).

[5] = system: KRAS mutation CRC cells LoVo; assay: Proliferation detection (Edu method); assay type: cell-based, human; details: FIGS. 8A-B
Protocol: as §5, §6, §7, §8, §9, §10, §11, §12

[6] = system: KRAS mutation CRC cells HCT-116; assay: Cell viability (CCK-8 method); assay type: cell-based, human
Protocol: as §2, §3, §4

[7] = system: KRAS mutation CRC cells LoVo; assay: Cell viability (CCK-8 method); assay type: cell-based, human
Protocol: as §2, §3, §4

SW48 CDX = assay: Cell-derived xenograft (CDX), tumor growth; assay type: in vivo, BALB/c nude mice; details: 200 mg/kg in water, 30 d, vs control group, FIGS. 12G-L
Protocol: The tumor inhibition effect of MATE1 with metformin was verified by a cell-derived xenograft transplantation model (CDX) experiment.
as §1

[8] = system: KRAS wildtype CRC cells SW48; assay: Apoptosis, Annexin V/PI double staining; assay type: cell-based, human; details: 2.5 mM, 5 mM and 10 mM, 24 h
Protocol: (§13) Annexin V/PI double staining was used on the KRAS wildtype cell SW48 and KRAS (G13D) mutation cells LoVo to detect the effect of metformin on the apoptosis of colorectal cancer cells.
(§14) 1) The cells were inoculated on a 6-well plate and subjected to adherence growth for 12 h, starvation treatment over the night, and treated with the addition of an agent for 24 h, then the cells were digested by EDTA-free trypsin and washed for once with PBS without immobilization.
(§15) 2) The cells were resuspended with the addition of 300 μl Binding Buffer, then 3 μl Annexin V-FITC and 3 μl Propidium Iodide (PI) were added and mixed well for incubation for 30 min in the dark at room temperature, then the cells were determined by a flow cytometry.
(§16) 3) Flow cytometry detection of antibodies: apoptosis kit (A211-02) was purchased from KeyGEN; the detection kit (558662) for cell cycle PI simple staining was purchased from BD company.

[9] = system: KRAS mutation CRC cells LoVo; assay: Apoptosis, Annexin V/PI double staining; assay type: cell-based, human; details: 2.5 mM, 5 mM and 10 mM, 24 h
Protocol: as §13, §14, §15, §16

[10] = system: colorectal cancer cells (LoVo, SW48) with altered MATE1; assay: Proliferation with MATE1 over-expressed on LoVo or interfered on SW48; assay type: cell-based, human; details: FIGS. 12E-F
[11] = with 5 μM and 10 μM lansoprazole, 48 h, FIGS. 11A-B

CN(C)C(=N)N=C(N)N [metformin] was tested, and the tumor growth (SW48+sh-MATE1 CDX) was “significantly inhibits the tumor growth”, the “anti-tumor effect (tumor growth)” value [1] was “has no effect” and the IC50 [2] was 90.8 mM. For the same compound, the IC50 [3] was 88.1 mM, the “ratio of proliferating-phase cells (EdU positive)” value [4] was “no obvious effect” and the “ratio of proliferating-phase cells (EdU positive)” value [5] was “decreases”. For the same compound, the IC50 ([6]; Homo sapiens, HCT-116, CCK8, FIG. 10) was 23.7 mM, the “increase of IC50 of metformin after lansoprazole” value [6, 11] was 1.2-2.5 times and the IC50 ([7]; Homo sapiens, LoVo, CCK8, FIG. 10) was 8.18 mM. The “increase of IC50 of metformin after lansoprazole” value [7, 11] was 1.2-2.5 times, the “anti-tumor effect (tumor growth)” value (SW48 CDX) was “no obvious anti-tumor effect” and the apoptosis [8] was “do not accelerate the apoptosis”. For the same compound, the apoptosis [9] was “do not accelerate the apoptosis” and the “inhibiting effect on proliferation with down-regulated expression of MATE1” value [10] was “accelerating the inhibiting effect”.
